Measurements published in PMC6021502, “Cannabigerol Action at Cannabinoid CB1 and CB2 Receptors and at CB1–CB2 Heteroreceptor Complexes” (Frontiers in Pharmacology, 2018).

Experiments:
[1] = target: T1, human CB2 receptor (Homo sapiens, UniProt P34972); test: [3H]-CP-55940 competition binding, CHO membranes; conditions: radioligand 0.3 nM [3H]-CP-55940, CHO membranes
T1 construct: expressed in transfected cells; membranes

[2] = tested on: T2, CB2R; test: Overall signalling profile (cAMP, MAPK, β-arrestin, DMR) in HEK-293T cells; format: cell-based, human; conditions: HEK-293T cells expressing CB2R
T2 construct: expressed in transfected cells; host or cells: HEK-293T, transient transfection (PEI)
Description: (§1) HEK-293T cells were grown in DMEM medium (Gibco, Paisley, Scotland, United Kingdom) supplemented with 2 mM L-glutamine, 100 U/mL penicillin/streptomycin, MEM Non-Essential Amino Acids Solution (1/100) and 5% (v/v) heat inactivated Foetal Bovine Serum (FBS) (Invitrogen, Paisley, Scotland, United Kingdom). […] Cells were transiently transfected with the PEI (Polyethylenimine, Sigma, St. Louis, MO, United States) method as previously described ([Medrano et al., 2017]; [Navarro et al., 2018b]) and used for functional assays 48 h later (unless otherwise stated).
(§2) Signaling experiments have been performed as previously described ([Navarro et al., 2010], [2016], [2018b]; [Hinz et al., 2018]). […] Readings were performed after 15 min incubation at 25°C. […] Fluorescence at 665 nm was analyzed in a PHERAstar Flagship microplate reader equipped with an HTRF optical module (BMG Lab Technologies, Offenburg, Germany).
(§3) To determine ERK1/2 phosphorylation, 50,000 HEK-293T cells/well were plated in transparent Deltalab 96-well microplates and kept at the incubator for 24 h. […] 10 μL of each supernatant were placed in white ProxiPlate 384-well microplates and ERK 1/2 phosphorylation was determined using AlphaScreen®SureFire® kit (Perkin Elmer) following the instructions of the supplier and using an EnSpire® Multimode Plate Reader (PerkinElmer, Waltham, MA, United States). […]

[3] = tested on: T3, CB1R; test: as above; format: cell-based, human; conditions: HEK-293T cells expressing CB1R
T3 construct: expressed in transfected cells; host or cells: HEK-293T, transient transfection (PEI)
Description: as §1, §2, §3

[4] = tested on: T2, CB2R; test: Label-free dynamic mass redistribution (DMR) in HEK-293T cells; format: cell-based, human
Description: as §1
(§4) Cell mass redistribution induced upon receptor activation was detected by illuminating the underside of a biosensor with polychromatic light and measuring the changes in the wavelength of the reflected monochromatic light. The magnitude of this wavelength shift (in picometers) is directly proportional to the amount of DMR. HEK-293T cells were seeded in 384-well sensor microplates to obtain 70–80% confluent monolayers constituted by approximately 10,000 cells per well. Previous to the assay, cells were washed twice with assay buffer (HBSS with 20 mM HEPES, pH 7.15) and incubated for 2 h with assay-buffer containing 0.1% DMSO (24°C, 30 μL/well). Hereafter, the sensor plate was scanned and a baseline optical signature was recorded for 10 min before adding 10 μL of CBG for 30 min followed by the addition of 10 μL of specific agonists; all test compounds were dissolved in assay buffer. The cell signaling signature was determined using an EnSpire® Multimode Plate Reader (PerkinElmer, Waltham, MA, United States) by a label-free technology. Then, DMR responses were monitored for at least 5,000 s. Results were analyzed using EnSpire Workstation Software v 4.10.

[5] = tested on: T3, CB1R; test: as above; format: cell-based, human
Description: as §1, §4

T1 sequence (P34972 whole entry): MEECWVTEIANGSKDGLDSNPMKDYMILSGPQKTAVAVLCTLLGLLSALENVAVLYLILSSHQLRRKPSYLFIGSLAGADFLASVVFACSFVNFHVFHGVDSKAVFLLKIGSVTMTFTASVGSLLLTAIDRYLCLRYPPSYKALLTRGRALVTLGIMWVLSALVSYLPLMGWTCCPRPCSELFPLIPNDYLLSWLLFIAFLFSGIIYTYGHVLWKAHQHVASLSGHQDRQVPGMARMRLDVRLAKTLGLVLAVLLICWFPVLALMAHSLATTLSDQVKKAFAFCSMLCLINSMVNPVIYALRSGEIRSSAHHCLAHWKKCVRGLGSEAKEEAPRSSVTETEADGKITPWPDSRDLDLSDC

## CCCCCc1cc(O)c(C/C=C(\C)CCC=C(C)C)c(O)c1 [CBG, cannabigerol]
[1]
  Ki: 1220 nM
[2]
  Pharmacological profile at CB2R: partial agonist of the CB2R
[3]
  Pharmacological profile at CB1R: poor agonist of CB1R
[4]; 100 nM or 1 μM CBG pretreatment, 100 nM AEA or JWH133, CB2R
  Effect on AEA and JWH133 effects on label-free DMR: reduced the effects of AEA and JWH133
[4]; CBG alone, 1 nM to 10 μM, CB2R-expressing cells
  DMR signal: small and similar to that exerted in CB1R-expressing cells
[5]; 100 nM or 1 μM CBG, 100 nM AEA or ACEA, CB1R
  Effect on agonist-induced DMR: reduced the effect of the agonists
[5]; CBG alone, 1 nM to 10 μM, CB1R-expressing cells
  DMR signal: slight effect
